Laboratory results taken from patent publication US20240376097A1, “BCL-2 Inhibitor” (BeiGene Ltd., priority 2020, published 2024).
Where two headings read alike, the source gives them in different places.

Columns and labels:
[1] = tested on: BCL-2 G101V knock-in cell line H96 (derive from RS4;11); experiment: Bcl 2-G101V Knock-In RS4;11 Cell Proliferation Assay; format: cell-based; conditions: Homo sapiens, RS4;11 Bcl-2 G101V knock-in clone H96, 48 hrs, CellTiter-GLO, read-out: Cellular proliferation assay (IC50, nM) RS4
Outline: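 H96, a CRISPR-generated RS4;11 clone carrying BCL2-G101V knock-in (WES/RNA-seq validated), seeded 50,000 per well and exposed 48 h at 37 °C to 10-point dilutions topping at 1 or 10 μM. Viability by CellTiter-Glo luminescence; mean IC50.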

[2] = tested on: RS4;11 (BCL-2 dependent acute lymphoblastic leukemia cell line); experiment: RS4;11 Cell Proliferation Assay; format: cell-based; conditions: Homo sapiens, RS4-11, RS4;11 cells, read-out: Cellular proliferation assay (IC50, nM) RS4
Outline: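 RS4;11 cells, 50,000 per well in RPMI-1640 with 10% FBS, treated 48 h at 37 °C with a 10-point dilution series topping at 1 μM. Viability read by CellTiter-Glo ATP luminescence; mean IC50 reported.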

[3] = molecular target: recombinant human Bcl-2 D103Y protein (Homo sapiens (Human), UniProt P10415, D103Y); experiment: Bcl-2-D103Y Biochemical Assay (TR-FRET); format: binding; conditions: for IC50: TR-FRET, FITC labeled Bak peptide; for Ratio of Bcl-2 D103Y/Bcl-2 WT: ratio of IC50
Outline: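 Recombinant human Bcl-2 D103Y binding to its ligand measured by TR-FRET (ex 337 nm, em 490/520 nm) with increasing compound concentrations. Percent inhibition from the 490/520 nm ratio; IC50 from four-parameter logistic fit.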

[4] = tested on: recombinant human Bcl-2-G101V protein; experiment: Bcl-2-G101V TR-FRET Assay; format: binding; conditions: ratio of biochemical IC50 Bcl-2 G101V / Bcl-2 WT
Outline: (§1)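 Ex337/em490 & 520 nm TR-FRET; % inhibition of Bcl-2-G101V–ligand interaction from 490:520 ratio vs. increasing compound conc.; IC50 by 4-parameter logistic fit.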

[5] = molecular target: recombinant human Bcl-2-G101V protein (Homo sapiens (Human), UniProt P10415, G101V); experiment: Bcl-2-G101V TR-FRET Assay; format: binding; conditions: Bcl-2 G101V mutant, TR-FRET; read-out: Biochemical assay (IC50, nM) Bcl-2 G101V
Outline: as §1

[6] = molecular target: Recombinant human Bcl-2 protein (Homo sapiens (Human), UniProt P10415); experiment: Bcl-2 TR-FRET Assay; format: binding
Outline: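 Compounds were pre-incubated with 0.05 nM recombinant Bcl-2 for 0.5 h at room temperature in potassium phosphate buffer, pH 7.5. FITC-Bak peptide (0.5 nM) and Tb-cryptate antibody were then added for 1 h. Percent inhibition from TR-FRET signals gave IC50 values.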

[7] = Bcl-2 wild type, TR-FRET, read-out: Biochemical assay (IC50, nM) Bcl-2 WT
[8] = wild type Bcl-2, unit inferred, read-out: Bcl-2 WT

## COc1cc(CN2CCN(C3CC4(CCN(c5ccc(C(=O)NS(=O)(=O)c6ccc(NC[C@H]7CC[C@](C)(O)CC7)c([N+](=O)[O-])c6)c(Oc6cnc7[nH]ccc7c6)c5)CC4)C3)[C@H](c3ccccc3C(C)C)C2)ccc1C(F)F [Example 288, 2-((1H-pyrrolo[2,3-b]pyridin-5-yl)oxy)-4-(2-((R)-4-(4-(difluoromethyl)-3-methoxybenzyl)-2-(2-isopropylphenyl)piperazin-1-yl)-7-azaspiro[3.5]nonan-7-yl)-N-((4-((((1r,4r)-4-hydroxy-4-methylcyclohexyl)methyl)amino)-3-nitrophenyl)sulfonyl)benzamide]
[1]
  IC50: 0.87 nM
[2]
  IC50: 0.19 nM
[3]
  IC50: 0.43 nM
  Ratio of Bcl-2 D103Y/Bcl-2 WT: 0.84
[4]
  Ratio of Bcl-2 G101V/WT: 2.5
[5]
  IC50: 1.3 nM
[6]; [7]
  IC50: 0.52 nM
[6]; [8]
  IC50: 0.52 nM

## COc1cc(CN2CCN(C3CC4(C3)CN(c3ccc(C(=O)NS(=O)(=O)c5ccc(NC[C@H]6CC[C@](C)(O)CC6)c([N+](=O)[O-])c5)c(Oc5cnc6[nH]cc(F)c6c5)c3)C4)[C@H](c3ccccc3C(C)C)C2)cc2c1OCC2(C)C [Example 295, 2-((3-fluoro-1H-pyrrolo[2,3-b]pyridin-5-yl)oxy)-N-((4-((((1r,4r)-4-hydroxy-4-methylcyclohexyl)methyl)amino)-3-nitrophenyl)sulfonyl)-4-(6-((R)-2-(2-isopropylphenyl)-4-((7-methoxy-3,3-dimethyl-2,3-dihydrobenzofuran-5-yl)methyl)piperazin-1-yl)-2-azaspiro[3.3]heptan-2-yl)benzamide]
[1]
  IC50: 0.49 nM
[2]
  IC50: 0.29 nM
[3]
  IC50: 0.25 nM
  Ratio of Bcl-2 D103Y/Bcl-2 WT: 1.3
[4]
  Ratio of Bcl-2 G101V/WT: 3.0
[5]
  IC50: 0.56 nM
[6]; [7]
  IC50: 0.19 nM
[6]; [8]
  IC50: 0.19 nM

## COc1cc(CN2CCN(C3CC4(C3)CN(c3ccc(C(=O)NS(=O)(=O)c5ccc(NC[C@H]6CC[C@](C)(O)CC6)c([N+](=O)[O-])c5)c(Oc5cnc6[nH]ccc6c5)c3)C4)[C@H](c3ccccc3C(C)C)C2)cc2c1OCC2(C)C [Example 296, 2-((1H-pyrrolo[2,3-b]pyridin-5-yl)oxy)-N-((4-((((1r,4r)-4-hydroxy-4-methylcyclohexyl)methyl)amino)-3-nitrophenyl)sulfonyl)-4-(6-((R)-2-(2-isopropylphenyl)-4-((7-methoxy-3,3-dimethyl-2,3-dihydrobenzofuran-5-yl)methyl)piperazin-1-yl)-2-azaspiro[3.3]heptan-2-yl)benzamide]
[1]
  IC50: 0.55 nM
[2]
  IC50: 0.24 nM
[3]
  IC50: 0.14 nM
  Ratio of Bcl-2 D103Y/Bcl-2 WT: 1.1
[4]
  Ratio of Bcl-2 G101V/WT: 2.1
[5]
  IC50: 0.28 nM
[6]; [7]
  IC50: 0.13 nM
[6]; [8]
  IC50: 0.13 nM

## COc1cc(CN2CCN(C3CC4(CCN(c5ccc(C(=O)NS(=O)(=O)c6ccc(NC[C@H]7CC[C@](C)(O)CC7)c([N+](=O)[O-])c6)c(Oc6cnc7[nH]cc(F)c7c6)c5)CC4)C3)[C@H](c3ccccc3C(C)C)C2)cc2c1OCCC2 [Example 299, 2-((3-fluoro-1H-pyrrolo[2,3-b]pyridin-5-yl)oxy)-N-((4-((((1r,4r)-4-hydroxy-4-methylcyclohexyl)methyl)amino)-3-nitrophenyl)sulfonyl)-4-(2-((R)-2-(2-isopropylphenyl)-4-((8-methoxychroman-6-yl)methyl)piperazin-1-yl)-7-azaspiro[3.5]nonan-7-yl)benzamide]
[1]
  IC50: 0.47 nM
[2]
  IC50: 0.27 nM
[3]
  IC50: 0.13 nM
  Ratio of Bcl-2 D103Y/Bcl-2 WT: 1.0
[4]
  Ratio of Bcl-2 G101V/WT: 1.9
[5]
  IC50: 0.25 nM
[6]; [7]
  IC50: 0.13 nM
[6]; [8]
  IC50: 0.13 nM

## COc1cc(CN2CCN(C3CC4(CCN(c5ccc(C(=O)NS(=O)(=O)c6ccc(NC[C@H]7CC[C@](C)(O)CC7)c([N+](=O)[O-])c6)c(Oc6cnc7[nH]ccc7c6)c5)CC4)C3)[C@H](c3ccccc3C(C)C)C2)cc2c1OCCC2 [Example 302, 2-((1H-pyrrolo[2,3-b]pyridin-5-yl)oxy)-N-((4-((((1r,4r)-4-hydroxy-4-methylcyclohexyl)methyl)amino)-3-nitrophenyl)sulfonyl)-4-(2-((R)-2-(2-isopropylphenyl)-4-((8-methoxychroman-6-yl)methyl)piperazin-1-yl)-7-azaspiro[3.5]nonan-7-yl)benzamide]
[1]
  IC50: 0.79 nM
[2]
  IC50: 0.31 nM
[3]
  IC50: 0.069 nM
  Ratio of Bcl-2 D103Y/Bcl-2 WT: 1.0
[4]
  Ratio of Bcl-2 G101V/WT: 2.8
[5]
  IC50: 0.2 nM
[6]; [7]
  IC50: 0.071 nM
[6]; [8]
  IC50: 0.071 nM

## COc1cc(CN2CCN(C3CC4(CCN(c5ccc(C(=O)NS(=O)(=O)c6ccc(NC[C@H]7CC[C@](C)(O)CC7)c([N+](=O)[O-])c6)c(Oc6cnc7[nH]cc(F)c7c6)c5)CC4)C3)[C@H](c3ccccc3C(C)C)C2)cc2c1OCC2 [Example 303]
[1]
  IC50: 0.52 nM
[2]
  IC50: 0.3 nM
[3]
  IC50: 0.16 nM
  Ratio of Bcl-2 D103Y/Bcl-2 WT: 1.4
[4]
  Ratio of Bcl-2 G101V/WT: 2.3
[5]
  IC50: 0.26 nM
[6]; [7]
  IC50: 0.11 nM
[6]; [8]
  IC50: 0.11 nM

## CC(C)c1ccccc1[C@@H]1CN(Cc2ccc3c(c2)OCC3)CCN1C1CC2(CCN(c3ccc(C(=O)NS(=O)(=O)c4ccc(NC[C@H]5CC[C@](C)(O)CC5)c([N+](=O)[O-])c4)c(Oc4cnc5[nH]ccc5c4)c3)CC2)C1 [Example 304, 2-((1H-pyrrolo[2,3-b]pyridin-5-yl)oxy)-4-(2-((R)-4-((2,3-dihydrobenzofuran-6-yl)methyl)-2-(2-isopropylphenyl)piperazin-1-yl)-7-azaspiro[3.5]nonan-7-yl)-N-((4-((((1r,4r)-4-hydroxy-4-methylcyclohexyl)methyl)amino)-3-nitrophenyl)sulfonyl)benzamide]
[1]
  IC50: 2.3 nM
[2]
  IC50: 0.3 nM
[3]
  IC50: 0.22 nM
  Ratio of Bcl-2 D103Y/Bcl-2 WT: 1.8
[4]
  Ratio of Bcl-2 G101V/WT: 3.2
[5]
  IC50: 0.41 nM
[6]; [7]
  IC50: 0.13 nM
[6]; [8]
  IC50: 0.13 nM

## COc1cc(CN2CCN(C3CC4(C3)CN(c3ccc(C(=O)NS(=O)(=O)c5ccc(NC[C@H]6CC[C@](C)(O)CC6)c([N+](=O)[O-])c5)c(Oc5cnc6[nH]cc(F)c6c5)c3)C4)[C@H](c3ccccc3C(C)C)C2)cc2ccoc12 [Example 306, 2-((3-fluoro-1H-pyrrolo[2,3-b]pyridin-5-yl)oxy)-N-((4-((((1r,4r)-4-hydroxy-4-methylcyclohexyl)methyl)amino)-3-nitrophenyl)sulfonyl)-4-(6-((R)-2-(2-isopropylphenyl)-4-((7-methoxybenzofuran-5-yl)methyl)piperazin-1-yl)-2-azaspiro[3.3]heptan-2-yl)benzamide]
[1]
  IC50: 0.15 nM
[2]
  IC50: 0.12 nM
[3]
  IC50: 0.31 nM
  Ratio of Bcl-2 D103Y/Bcl-2 WT: 1.0
[4]
  Ratio of Bcl-2 G101V/WT: 3.1
[5]
  IC50: 0.97 nM
[6]; [7]
  IC50: 0.31 nM
[6]; [8]
  IC50: 0.31 nM

## COc1cc(CN2CCN(C3CC4(C3)CN(c3ccc(C(=O)NS(=O)(=O)c5ccc(NC[C@H]6CC[C@](C)(O)CC6)c([N+](=O)[O-])c5)c(Oc5cnc6[nH]ccc6c5)c3)C4)[C@H](c3ccccc3C(C)C)C2)cc2ccoc12 [Example 307, 2-((1H-pyrrolo[2,3-b]pyridin-5-yl)oxy)-N-((4-((((1r,4r)-4-hydroxy-4-methylcyclohexyl)methyl)amino)-3-nitrophenyl)sulfonyl)-4-(6-((R)-2-(2-isopropylphenyl)-4-((7-methoxybenzofuran-5-yl)methyl)piperazin-1-yl)-2-azaspiro[3.3]heptan-2-yl)benzamide]
[1]
  IC50: 0.17 nM
[2]
  IC50: 0.11 nM
[3]
  IC50: 0.18 nM
  Ratio of Bcl-2 D103Y/Bcl-2 WT: 1.1
[4]
  Ratio of Bcl-2 G101V/WT: 2.5
[5]
  IC50: 0.43 nM
[6]; [7]
  IC50: 0.17 nM
[6]; [8]
  IC50: 0.17 nM

## CC(C)c1ccccc1[C@@H]1CN(Cc2ccnc3c2OCC(C)(C)O3)CCN1C1CC2(C1)CN(c1ccc(C(=O)NS(=O)(=O)c3ccc(NC[C@H]4CC[C@](C)(O)CC4)c([N+](=O)[O-])c3)c(Oc3cnc4[nH]cc(F)c4c3)c1)C2 [Example 317]
[1]
  IC50: 0.43 nM
[2]
  IC50: 0.19 nM
[3]
  IC50: 0.057 nM
  Ratio of Bcl-2 D103Y/Bcl-2 WT: 1.7
[4]
  Ratio of Bcl-2 G101V/WT: 3.6
[5]
  IC50: 0.12 nM
[6]; [7]
  IC50: 0.033 nM
[6]; [8]
  IC50: 0.033 nM
